Test results published in patent publication US8501770B2 (ArQule, Inc., priority 2009, dated 2013).
pIC50: −log10 of the molar value.

molecular target: Full-length inactive AKT1 (Homo sapiens, UniProt P31749); test: Inactive Akt Alpha Screen Assay; assay type: biochemical; settings: values not marked with "*"; read-out: Akt1 IC50, (AlphaScreen)
In short: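 AlphaScreen read-out (excitation 640 nm, emission 570 nm) after 90 min incubation at room temperature in the dark. Signal comes from crosstide phosphorylation by AKT1, which was activated by added PDK1, MAPKAPK2, ATP and lipid vesicles, captured via phospho-AKT substrate antibody and streptavidin beads.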

Chain of Full-length inactive AKT1 (P31749 whole entry): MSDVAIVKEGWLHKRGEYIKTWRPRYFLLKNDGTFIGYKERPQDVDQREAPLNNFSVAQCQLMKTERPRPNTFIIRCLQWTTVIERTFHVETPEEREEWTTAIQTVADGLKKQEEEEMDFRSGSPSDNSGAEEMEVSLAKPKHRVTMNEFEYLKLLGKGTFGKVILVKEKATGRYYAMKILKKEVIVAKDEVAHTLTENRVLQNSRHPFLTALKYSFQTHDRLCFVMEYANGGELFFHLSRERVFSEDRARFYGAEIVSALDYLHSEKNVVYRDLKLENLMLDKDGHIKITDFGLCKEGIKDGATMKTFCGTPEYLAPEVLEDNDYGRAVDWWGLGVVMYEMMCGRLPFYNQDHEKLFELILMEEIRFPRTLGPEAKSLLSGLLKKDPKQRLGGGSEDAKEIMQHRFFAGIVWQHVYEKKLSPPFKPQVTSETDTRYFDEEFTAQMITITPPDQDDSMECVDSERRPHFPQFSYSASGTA

Row | Compound | pIC50
1 | Nc1ncccc1-c1nc2ccc(-c3ccc(N4CCOCC4)nc3)nc2n1-c1ccc(C2(N)CCC2)cc1 [Example 404, 3-{3-[4-(1-aminocyclobutyl)phenyl]-5-(6-morpholin-4-ylpyridin-3-yl)-3H-imidazo[4,5-b]pyridin-2-yl}pyridin-2-amine] | 8.11
2 | CC(C)C(=O)Nc1cccc(-c2ccc3nc(-c4cccnc4N)n(-c4ccc(C5(N)CCC5)cc4)c3n2)c1 [Example 405, N-(3-{3-[4-(1-aminocyclobutyl)phenyl]-2-(2-aminopyridin-3-yl)-3H-imidazo[4,5-b]pyridin-5-yl}phenyl)-2-methylpropanamide] | 7.89
3 | Nc1ncccc1-c1nc2ccc(-c3cccc(NS(=O)(=O)C4CC4)c3)nc2n1-c1ccc(C2(N)CCC2)cc1 [Example 406, N-(3-{3-[4-(1-aminocyclobutyl)phenyl]-2-(2-aminopyridin-3-yl)-3H-imidazo[4,5-b]pyridin-5-yl}phenyl)cyclopropanesulfonamide] | 8.59
4 | Cc1ccc(S(=O)(=O)Nc2cccc(-c3ccc4nc(-c5cccnc5N)n(-c5ccc(C6(N)CCC6)cc5)c4n3)c2)cc1 [Example 407, N-(3-{3-[4-(1-aminocyclobutyl)phenyl]-2-(2-aminopyridin-3-yl)-3H-imidazo[4,5-b]pyridin-5-yl}phenyl)-4-methylbenzenesulfonamide] | 8.55
5 | Nc1ncccc1-c1nc2ccc(-c3cc[nH]c3)nc2n1-c1ccc(C2(N)CCC2)cc1 [Example 408, 3-{3-[4-(1-aminocyclobutyl)phenyl]-5-(1H-pyrrol-3-yl)-3H-imidazo[4,5-b]pyridin-2-yl}pyridin-2-amine] | 8.62
6 | CN(C)c1cccc(-c2ccc3nc(-c4cccnc4N)n(-c4ccc(C5(N)CCC5)cc4)c3n2)c1 [Example 409, 3-{3-[4-(1-aminocyclobutyl)phenyl]-5-[3-(dimethylamino)phenyl]-3H-imidazo[4,5-b]pyridin-2-yl}pyridin-2-amine] | 8.28
7 | CN(C)c1ccc(-c2ccc3nc(-c4cccnc4N)n(-c4ccc(C5(N)CCC5)cc4)c3n2)cc1 [Example 410, 3-{3-[4-(1-aminocyclobutyl)phenyl]-5-[4-(dimethylamino)phenyl]-3H-imidazo[4,5-b]pyridin-2-yl}pyridin-2-amine] | 8.01
8 | COc1cc(OC)cc(-c2ccc3nc(-c4cccnc4N)n(-c4ccc(C5(N)CCC5)cc4)c3n2)c1 [Example 411, 3-{3-[4-(1-aminocyclobutyl)phenyl]-5-(3,5-dimethoxyphenyl)-3H-imidazo[4,5-b]pyridin-2-yl}pyridin-2-amine] | 8.35
9 | COCc1cccc(-c2ccc3nc(-c4cccnc4N)n(-c4ccc(C5(N)CCC5)cc4)c3n2)c1 [Example 412, 3-{3-[4-(1-aminocyclobutyl)phenyl]-5-[3-(methoxymethyl)phenyl]-3H-imidazo[4,5-b]pyridin-2-yl}pyridin-2-amine] | 8.40
10 | COc1ccc(F)c(-c2ccc3nc(-c4cccnc4N)n(-c4ccc(C5(N)CCC5)cc4)c3n2)c1 [Example 413, 3-{3-[4-(1-aminocyclobutyl)phenyl]-5-(2-fluoro-5-methoxyphenyl)-3H-imidazo[4,5-b]pyridin-2-yl}pyridin-2-amine] | 8.15
11 | COc1ccc(-c2ccc3nc(-c4cccnc4N)n(-c4ccc(C5(N)CCC5)cc4)c3n2)cc1OC [Example 414, 3-{3-[4-(1-aminocyclobutyl)phenyl]-5-(3,4-dimethoxyphenyl)-3H-imidazo[4,5-b]pyridin-2-yl}pyridin-2-amine] | 8.31
12 | Nc1ncccc1-c1nc2cccnc2n1-c1ccc(C2(N)CCC2)cc1 [Example 415, 3-{3-[4-(1-aminocyclobutyl)phenyl]-3H-imidazo[4,5-b]pyridin-2-yl}pyridin-2-amine] | 7.89
13 | Nc1ncccc1-c1nc2ccc(-c3ccc4scnc4c3)nc2n1-c1ccc(C2(N)CCC2)cc1 [Example 416, 3-{3-[4-(1-aminocyclobutyl)phenyl]-5-(1,3-benzothiazol-5-yl)-3H-imidazo[4,5-b]pyridin-2-yl}pyridin-2-amine] | 8.38
